Several values for one entry are separate records, joined by “and”; a condition that tells them apart may be missing. Equal entries are not always repeated.
Key:
Strain AD1-8 = conditions: selective media
Source text: (§1) Solid lines and shaded/hatched bars respectively indicate mean and standard deviation of n=3 biologically independent samples.
(§2) Heatmap values were extracted from mean growth curves in FIG. 80.
(§3) Yeast toxicity assays and growth curves. Candidate transporters for use in non-plant cells for the purpose of enhancing or modulating metabolite localization may be characterized in any suitable strain of the non-plant organism of interest. […] An example protocol for the characterization of TA transporters in yeast is provided as follows. […] Strain AD1-8 is transformed as described earlier with a low-copy plasmid harboring a constitutively expressed transporter candidate or blue fluorescent protein as negative control and a suitable auxotrophic marker, such as URA3, LEU2, TRP1, or […]. Transformants are inoculated into 1 mL of selective YNB-G media and grown overnight (˜14-18 h) at 30° C. and 460 rpm. […] Culture densities (OD600) are then measured every 30 min for 48 h in a suitable plate reader, such as a SpectraMax i3 plate reader (Molecular Devices), with chamber temperature 30° C. and orbital shaking every 30 min. […]

AbPUP1 = assay: Yeast toxicity assay and growth curves, AD1-8 expressing AbPUP1
Source text: as §1, §2, §1, §1, §3

AbLP1 = assay: Yeast toxicity assay and growth curves, AD1-8 expressing AbLP1
Source text: as §1, §2, §1, §1, §3

[1] = molecular target: T1, AbUGT (UDP-glucosyltransferase 84A27) (Atropa belladonna, UniProt A0A3B6XRM0); assay: Conversion of fed phenylpropanoids to glucosides by yeast expressing AbUGT; format: cell-based; conditions: AbUGT from low-copy plasmid in CSY1251; 500 μM substrate, 72 h, selective media
T1 construct: expressed in transfected cells; host or cells: Saccharomyces cerevisiae CSY1251 (tropine-producing, CEN.PK2-derived), low-copy plasmid
T1 sequence (A0A3B6XRM0 1-490): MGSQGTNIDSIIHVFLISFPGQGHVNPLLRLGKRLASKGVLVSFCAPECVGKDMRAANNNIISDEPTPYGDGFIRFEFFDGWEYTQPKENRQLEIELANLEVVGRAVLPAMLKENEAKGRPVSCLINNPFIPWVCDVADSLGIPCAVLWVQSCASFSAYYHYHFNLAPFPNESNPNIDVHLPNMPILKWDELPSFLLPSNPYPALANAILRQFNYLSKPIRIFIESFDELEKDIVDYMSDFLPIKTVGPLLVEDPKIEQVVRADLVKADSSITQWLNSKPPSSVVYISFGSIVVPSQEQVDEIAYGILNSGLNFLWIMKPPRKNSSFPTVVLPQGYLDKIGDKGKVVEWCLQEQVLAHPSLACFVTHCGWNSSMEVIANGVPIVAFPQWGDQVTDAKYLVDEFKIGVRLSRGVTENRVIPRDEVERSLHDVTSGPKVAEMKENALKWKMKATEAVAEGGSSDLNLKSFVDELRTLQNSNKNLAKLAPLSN

[2] = tested on: UGT84A27 orthologs (AbUGT, BsUGT, DmUGT); format: cell-based, Atropa belladonna, Brugmansia sanguinea, D. metel; conditions: all three UGT orthologs, low-copy plasmids in CSY1251; 500 μM substrate, 72 h
[3] = tested on: AbUGT84A27 active site mutants; assay: Conversion of fed phenylpropanoids to glucosides by yeast expressing AbUGT active site mutants; format: cell-based, Atropa belladonna; conditions: F130Y, L205F, I292Q point mutants of AbUGT in CSY1251; 500 μM substrate, 72 h
Description: FIG. 36 illustrates the substrate specificity of AbUGT84A27 active site mutants. […] AbUGT wild-type, active site mutants, or a BFP negative control were expressed from low-copy plasmids in CSY1251. Transformed cells were cultured in selective media supplemented with 500 μM PLA, CA, or FA for 72 h prior to LC-MS/MS analysis. Data represent the mean of n=3 biologically independent samples ±standard deviation.
6.1) As wild-type yeast produce only trace levels of PLA, production of this TA precursor must be increased to permit sufficient accumulation of downstream TAs. To improve PLA production, heterologous phenylpyruvate reductases (PPRs) may be expressed in the engineered host cells. PPR orthologs from E. coli, Lactobacillus, A. belladonna, and Wickerhamia fluorescens, as well as lactate dehydrogenases (LDHs) from Bacillus and Lactobacillus with reported activity on 3-phenylpyruvate (Table 1) were screened for activity in yeast by expressing each enzyme from a low-copy plasmid in CSY1251 and measuring PLA production by LC-MS/MS after 72 h of growth in selective media. […] As such, WfPPR was selected for integration into CSY1251 to make strain CSY1287. […] 6.4.2.1) Extra copies of PGM2 and UGP1 were expressed from low-copy plasmids in CSY1288 and PLA glucoside production was measured following 72 h of growth in selective media. […]

With `CN1[C@@H]2CC[C@H]1CC(OC(=O)[C@H](O)Cc1ccccc1)C2` (stereo partly shown) [littorine] the “θHM, ratio of time for half-maximal OD600 at 20 mM relative to at 0 mM” value (“θHM, ratio … at 20 mM relative to at 0 mM” below) (Strain AD1-8; AD1-8 expressing BFP control from low-copy plasmid, 0-20 mM alkaloid) was ~1.0, the “θHM, ratio … at 20 mM relative to at 0 mM” value (AbPUP1; AD1-8 expressing AbPUP1 from low-copy plasmid, selective media, 0-20 mM alkaloid) was ~1.3 and the “θHM, ratio … at 20 mM relative to at 0 mM” value (AbLP1; AD1-8 expressing AbLP1 from low-copy plasmid, selective media, 0-20 mM alkaloid) was ~1.1.

In the case of `CN1[C@@H]2CC[C@H]1C[C@@H](O)C2` [tropine], the “growth of AD1-8 at tested concentrations higher than 1 mM” value (Strain AD1-8; concentrations above 1 mM) was “severely retarded the growth”, the “sensitivity to alkaloid conferred by transporter expression” value (AbPUP1; AD1-8 expressing AbPUP1, tropine only at 1 mM) was “not” and the “sensitivity to alkaloid conferred by transporter expression” value (AbLP1; AD1-8 expressing AbLP1, tropine only at 1 mM) was “not”.

For `O=C(O)[C@H](O)Cc1ccccc1` [PLA, (D)-3-phenyllactic acid], the “percent conversion of fed phenylpropanoid to glucoside” value (shortened to “percent conversion”) [1] was < 3% and 2.7%, the “percent conversion” value [2] was < 3% and the “percent conversion” value [3] was < 3%.

For `O=C(O)/C=C/c1ccccc1` [cinnamic acid, trans-cinnamic acid], the “percent conversion” value [1] was ~60%.

Source: US20240191267A1, “Tropane Alkaloid Transporters and Methods of Making Tropane Alkaloids Using the Same” (priority 2021, published 2024)
